The source of these data is patent publication US10962528B2, “Blue fluorescent protein monomers and uses thereof” (WISYS TECHNOLOGY FOUNDATION, INC., priority 2015, dated 2021).

Molecules are shown by their SMILES.

The target of test [1] is T1, Sander vitreus (blue walleye) Sandercyanin fluorescent protein (SFP), wild type, SEQ ID NO:1 (recombinant without signal peptide SEQ ID NO:31) (Sander vitreus, UniProt A0A1D5B367).
T1 construct: apo monomer, tetramer with biliverdin
T1 sequence (A0A1D5B367 1-170): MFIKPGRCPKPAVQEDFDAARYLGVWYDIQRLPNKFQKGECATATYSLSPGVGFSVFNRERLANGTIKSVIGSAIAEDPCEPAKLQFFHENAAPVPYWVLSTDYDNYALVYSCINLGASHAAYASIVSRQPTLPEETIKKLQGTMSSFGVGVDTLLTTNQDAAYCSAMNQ
The test can be described thus: Binding of biliverdin to (apo) Sandercyanin by fluorescence titration. Here is the method: FIGS. 11C-11D (C) Titration of apo-SFP (20 uM) with BV IXα measured at 675 nm with λex=375 nm (green) and 630 nm (red). (D) Photo-bleaching kinetics of Sandercyanin and free-biliverdin (BV).
Addition of the biliverdin to apo-protein results in red-shift in the fluorescence of Sandercyanin to near infra-red (NIR) region. Molar extinction coefficient of holoSFP measured in phosphate buffer of pH 7.4 at 375 nm and 630 nm are 21,000 M^−1 cm^−1 and 13,500 M^−1 cm^−1 respectively and quantum yield is determined to be 0.016. Further, fluorescence spectra is widely spread into the infrared region with minimal overlap with the excitation spectra. We examined the affinity of apoSFP towards BV using fluorescence and determined Kd of 6 μM.
Native SFP was extracted and purified from the mucus of Blue Walleye from Northwest Ontario by various chromatographic methods as described previously (Chi Li et al). A putative amino acid sequence of SFP was determined from crystal structure of the native protein, confirmed and corrected after whole genome sequencing of Blue Walleye. […]
All experiments were performed with purified SFP samples (apo and holo forms) at pH 7.5 and room temperature. UV-Visible absorbance spectra of native and recombinant SFP were recorded from 800 to 200 nm with ultraspec 2100 pro spectrophotometer from Amersham Biosciences. CD spectra were measured on JASCO J-815 Spectropolarimeter. […]

In test [2] the target is Sander vitreus Sandercyanin fluorescent protein (SFP) variant SFP-A137E, SEQ ID NO:4 (Sander vitreus, UniProt A0A1D5B367, A118E). The test can be described thus: Biliverdin binding of monomeric SFP variant. As to the method:
(§1) All experiments were performed with purified SFP samples (apo and holo forms) at pH 7.5 and room temperature. UV-Visible absorbance spectra of native and recombinant SFP were recorded from 800 to 200 nm with ultraspec 2100 pro spectrophotometer from Amersham Biosciences. CD spectra were measured on JASCO J-815 Spectropolarimeter. Steady state fluorescence, excitation, binding and photobleaching studies were monitored on Horiba Jobin Yvon Fluoromax-4 fluorimeter. Data analysis were done using Origin6 and Origin8 software. Hydrogen was exchanged with Deuterium by increasing concentrations of D2O to a standard protein concentration. Deuteriated proteins were prepared in the same buffer, incubated for 15 minutes, and monitored for spectral properties.
(§2) All SFP variants were expressed using E. coli BL21*(DE3) cells. Briefly, each of the SFP monomer mutant genes in pET21a vector were transformed into BL21*(DE3) cells and selected on a LB agar plate containing ampicillin (100 μg/mL). For large scale expression, about 5 mL of the overnight grown primary culture was inoculated into 500 mL of LB medium containing 100 μg/mL ampicillin. Cells were grown at 37° C. until OD600 nm reached to 0.6-0.7. Then, cells were induced using 0.2 mM isopropyl-thiogalactoside (IPTG). Post-induction cells were grown at 20° C. for 20 hours. Thereafter, cells were harvested by centrifugation at 6000 rpm for 10 minutes. Bacterial cell pellet containing SFP as insoluble protein was resuspended in a lysis buffer (20 mM Tris-HCl, pH 7.5, 10 mM EDTA and 1% TritonX). […] Thus, refolded purified SFP was checked using an analytical gel filtration column for oligomerization state and biliverdin (BV) binding by UV-visible absorbance and fluorescence spectroscopy (FIGS. 1A-1D).
(§3) Characterization of monoSFP Variants—MonoSFP variants were characterized by size-exclusion chromatography during purification of the proteins. […] They have far-red to near infra-red fluorescence with large Stokes shift. […] To test this, we performed detergent (Triton X-100) assays with the monoSFPs and measured absorbance and fluorescence spectra. […]

Test [3] concerns the target Sander vitreus Sandercyanin fluorescent protein (SFP) variant SFP-L135E (mSFP2), SEQ ID NO:3 (Sander vitreus, UniProt A0A1D5B367, L116E). The test can be described thus: Biliverdin binding of monomeric SFP variant. Here is the method: as §1, §2, §3
Test [4] has as its target Sander vitreus Sandercyanin fluorescent protein (SFP) variant SFP-V71E (mSFP1), SEQ ID NO:2 (Sander vitreus, UniProt A0A1D5B367, V52E). The test can be described thus: Biliverdin binding of monomeric SFP variant. As to the method:
as §1, §2, §3

For test [5], the target named is T2, Sander vitreus Sandercyanin fluorescent protein (SFP) variant, Phe 55 to alanine (Sander vitreus, UniProt A0A1D5B367, F36A).
T2 construct: preparation not described for this mutant
T2 sequence (A0A1D5B367 entry or part of it F36A): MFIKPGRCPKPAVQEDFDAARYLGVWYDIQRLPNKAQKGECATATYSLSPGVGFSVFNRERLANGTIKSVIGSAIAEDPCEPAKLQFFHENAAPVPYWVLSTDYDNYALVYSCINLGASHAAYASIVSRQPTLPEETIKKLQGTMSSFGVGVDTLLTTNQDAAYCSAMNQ
The test can be described thus: Biliverdin binding of SFP mutant. The settings on record: Phe 55 to alanine mutation.

Sequence of Sander vitreus Sandercyanin fluorescent protein (SFP) variant SFP-L135E (mSFP2), SEQ ID NO:3 (A0A1D5B367 entry or part of it L116E): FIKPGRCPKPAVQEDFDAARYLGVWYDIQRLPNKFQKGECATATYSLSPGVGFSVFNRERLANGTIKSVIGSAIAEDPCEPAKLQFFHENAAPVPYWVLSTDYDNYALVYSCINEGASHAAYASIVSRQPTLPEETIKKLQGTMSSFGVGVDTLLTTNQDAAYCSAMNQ
Sequence of Sander vitreus Sandercyanin fluorescent protein (SFP) variant SFP-V71E (mSFP1), SEQ ID NO:2 (A0A1D5B367 entry or part of it V52E): as the sequence (A0A1D5B367 entry or part of it L116E) above, with V51E, E115L counted along it
Sequence of Sander vitreus Sandercyanin fluorescent protein (SFP) variant SFP-A137E, SEQ ID NO:4 (A0A1D5B367 entry or part of it A118E): as the sequence (A0A1D5B367 entry or part of it L116E) above, with E115L, A117E counted along it

As usually defined, the Kd is the free concentration of one partner at which half of the binding sites on the other are occupied at equilibrium, for simple one-to-one binding. In the case of `C=CC1=C(C)/C(=C/C2=NC(=C\c3[nH]c(/C=C4\NC(=O)C(C)=C4C=C)c(C)c3CCC(=O)O)/C(CCC(=O)O)=C2C)NC1=O` [BV, Biliverdin IXα], the equilibrium dissociation constant (Kd) in test [1] (Table 4, wild-type SFP (tetramer)) is 5 to 6 µM; in test [1] (affinity of apoSFP towards BV using fluorescence, pH 7.5, room temperature), 6 µM; in test [2], 3 to 5 µM; in test [3], 4 to 12 µM; in test [4], 4 to 6 µM. Besides, the BV binding entry in test [5] was “abolished BV binding”.
